According to patent publication US20060110456A1, “Method for biocidal and/or biostatic treatment and compositions therefor” (NATIONAL UNIVERSITY OF SINGAPORE, priority 2004, published 2006):
“Also recorded” adds a separate entry of the source.

How the values were obtained:
[1] = tested on: marine bacteria (ten strains); assay: Bio-adhesion assay (crystal violet microplate); assay type: cell-based, marine bacteria isolated from Singapore fouling communities; settings: for Effect of drugs on adhesion of bacteria: 50 μl of 125 μg ml^−1 drug + 200 μl bacteria, 2 hours
Procedure, shortened: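 Ten marine bacterial strains (A600 0.6 in seawater) left to attach for 2 hours at 28° C on hydrophobic and hydrophilic polystyrene, with 50 μl of drug at 125 μg ml^−1 added. Adherent cells stained with crystal violet, dye extracted with desoxycholate, A590 read; significance by t-test, in duplicate.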

Bugula neritina larvae = assay: Bioassay against bryozoan larvae; assay type: in vivo; settings: crude rank, best (1) to worst (8)
[2] = tested on: hard fouling (barnacles, serpulids, spirorbids); assay: Field testing of coated rods; assay type: in vivo
[3] = drug + VC50 rods vs VC50 control
[4] = drug + VC50 rods vs uncoated blank control
[5] = rods coated with drug + VC50, field test

Cc1cc2c(s1)Nc1ccccc1N=C2N1CCN(C)CC1 [ZPX, olanzapine]
Effect on bacterial adhesion ([1]; polystyrene or tissue culture surface as named in the value): prevented biofilm formation for almost all strains in the polystyrene surface
Effect of drugs on adhesion of bacteria ([1]; strain 1 (Rhodovulum), hydrophobic surface (untreated polystyrene)): *** (*** p < 0.005)
Effect of drugs on adhesion of bacteria ([1]; strain 4 (Bacillus), hydrophobic surface (untreated polystyrene)): * (Significantly less adhesion observed: * p < 0.05)
Effect of drugs on adhesion of bacteria ([1]; strain 9 (Bacillus), hydrophobic surface (untreated polystyrene)): *** (*** p < 0.005)
Effect of drugs on adhesion of bacteria ([1]; strain 14 (Vibrio), hydrophobic surface (untreated polystyrene)): ** (** p < 0.01)
Effect of drugs on adhesion of bacteria ([1]; strain 18 (Microbacterium), hydrophobic surface (untreated polystyrene)): * (Significantly less adhesion observed: * p < 0.05)
Effect of drugs on adhesion of bacteria ([1]; strain 20, hydrophobic surface (untreated polystyrene)): *** (*** p < 0.005)
Effect of drugs on adhesion of bacteria ([1]; strain 27, hydrophobic surface (untreated polystyrene)): *** (*** p < 0.005)
Effect of drugs on adhesion of bacteria ([1]; strain 28, hydrophobic surface (untreated polystyrene)): *** (*** p < 0.005)
Effect of drugs on adhesion of bacteria ([1]; strain 29, hydrophobic surface (untreated polystyrene)): * (Significantly less adhesion observed: * p < 0.05)
Effect of drugs on adhesion of bacteria ([1]; strain 30, hydrophilic surface (tissue culture treated polystyrene)): * (Significantly less adhesion observed: * p < 0.05)
Prevention of settlement of Bugula larvae (Bugula neritina larvae): 6
Total hard fouling, mean cover ([2]; coated rods, 25 ug active ingredient per ml of VC50 coating): 17.3%
Performance against barnacles ([2]; coated rods, in words): only significant for barnacles
Overall performance in field assay ([2]; crude rank, best (1) to worst (8)): 3
Barnacles, difference in mean cover (%), drug vs VC50 [2, 3]: −23.3%
Serpulids, difference in mean cover (%), drug vs VC50 [2, 3]: −1.67%
Spirorbids, difference in mean cover (%), drug vs VC50 [2, 3]: −12.66%
Total hard fouling, difference in mean cover (%), drug vs VC50 [2, 3]: −37.7%
Barnacles, difference in mean cover (%), drug vs control [2, 4]: −86.3%
Serpulids, difference in mean cover (%), drug vs control [2, 4]: −3.33%
Spirorbids, difference in mean cover (%), drug vs control [2, 4]: +9%
Total hard fouling, difference in mean cover (%), drug vs control [2, 4]: −80.7%
Effect of addition of drug on antifouling performance of VC50 coating (total hard fouling) ([2]; drug at 25 ug per ml of VC50 coating, in words): significantly improved performance against total hard fouling; also recorded: significantly improved the performance of VC50 coating
Barnacles Mean cover (%) [2, 5]: 6.67%
Serpulids Mean cover (%) [2, 5]: 0%
Spirorbids Mean cover (%) [2, 5]: 10.67%
Total hard fouling Mean cover (%) ([2]; rods coated with drug + VC50, field test, percentage cover within 6 mm×50 mm transect): 17.3%
